Assay results: US20250346575A1, “ISOINDOLINONE DERIVATIVE HAVING GLUTARIMIDE MOTHER NUCLEUS, AND USE THEREOF” (KOREA RESEARCH INSTITUTE OF CHEMICAL TECHNOLOGY, priority 2021, published 2025)

Key:
[1] = target: T1, GSPT1 protein (Homo sapiens, UniProt P15170+Q96SW2); experiment: Substrate protein degradation activity of CRBN (Western blot); assay type: cell-based; details: KG-1 cell lines, 6 hours, FIG. 1
T1 construct: endogenous in cells; host or cells: KG-1 cells
Description: Examination was made to determine whether the compounds of the present disclosure bind to cereblon (CRBN) and inhibit the function of CRBN. In this regard, the compounds were investigated for degradation activity for Ikaros (IKZF1) protein (Chamberlain, P. P. et al., 2014) or GSPT1 protein (Matyskiela, M. E. et al., 2016) which CRBN protein degrades when binding to thalidomide and analogs thereof.
In order to assay the compounds according to the present disclosure for degradation activity for Ikaros (IKZF1) protein or GSPT1 protein, experiments were carried out as follows.
KG-1 cells were seeded at a density of 5×10^5 cells per well into 12-well plates, and each compound was added at predetermined concentration to the wells. After 6 hours, cell lysates were collected using TBSN buffer. The degradation activity of Ikaros protein was assessed using an antibody against Ikaros protein, and the degradation activity of GSPT1 protein was evaluated using an antibody against GSPT1 protein through Western blot analysis. In this regard, equal amounts of protein were loaded into each well of a 4-15% gradient gel, and after electrophoresis, proteins were transferred to a PVDF membrane. Each protein was then bound with primary antibodies, followed by the attachment of HRP-conjugated secondary antibodies, and developed using an HRP substrate.

[2] = test system: Cancer cells (KG-1); experiment: Cytotoxicity assay, WST-1, KG-1; assay type: cell-based; details: for IC50: Homo sapiens, KG-1 cells, 72 hours, WST-1
Procedure: To evaluate the effect of the compounds of the present disclosure on cancer cells, a cytotoxicity assay was conducted as follows.
Cancer cells (KG-1) were seeded at a concentration of 10,000 cells per well into a 96-well plate. Then, the cells were treated with predetermined concentrations of compounds of the Examples and comparative substances (comparative compounds 1, 2, 3). After 72 hours, the cells were incubated with WST-1 reagent for one hour. Then, absorbance was measured at 450 nm using a spectramax spectrophotometer to assess the degree of cancer cell apoptosis. The IC50 (μM) values were calculated using the measured values with the GraphPad Prism program and the measurements are summarized in Table 1.

T1 sequence (P15170 whole entry): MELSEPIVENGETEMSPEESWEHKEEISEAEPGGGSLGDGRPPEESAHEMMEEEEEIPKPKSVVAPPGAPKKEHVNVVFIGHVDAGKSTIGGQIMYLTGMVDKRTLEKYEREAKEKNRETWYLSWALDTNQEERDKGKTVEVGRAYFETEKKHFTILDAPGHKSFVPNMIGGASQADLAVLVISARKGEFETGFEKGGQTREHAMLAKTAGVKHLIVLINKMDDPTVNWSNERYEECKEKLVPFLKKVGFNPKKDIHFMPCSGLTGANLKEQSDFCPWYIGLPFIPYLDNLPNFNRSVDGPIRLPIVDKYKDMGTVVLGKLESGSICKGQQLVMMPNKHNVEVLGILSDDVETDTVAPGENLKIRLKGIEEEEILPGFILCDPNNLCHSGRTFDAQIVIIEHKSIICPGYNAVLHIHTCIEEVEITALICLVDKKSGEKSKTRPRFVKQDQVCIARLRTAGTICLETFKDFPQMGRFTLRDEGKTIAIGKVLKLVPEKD
T1 sequence (Q96SW2 whole entry): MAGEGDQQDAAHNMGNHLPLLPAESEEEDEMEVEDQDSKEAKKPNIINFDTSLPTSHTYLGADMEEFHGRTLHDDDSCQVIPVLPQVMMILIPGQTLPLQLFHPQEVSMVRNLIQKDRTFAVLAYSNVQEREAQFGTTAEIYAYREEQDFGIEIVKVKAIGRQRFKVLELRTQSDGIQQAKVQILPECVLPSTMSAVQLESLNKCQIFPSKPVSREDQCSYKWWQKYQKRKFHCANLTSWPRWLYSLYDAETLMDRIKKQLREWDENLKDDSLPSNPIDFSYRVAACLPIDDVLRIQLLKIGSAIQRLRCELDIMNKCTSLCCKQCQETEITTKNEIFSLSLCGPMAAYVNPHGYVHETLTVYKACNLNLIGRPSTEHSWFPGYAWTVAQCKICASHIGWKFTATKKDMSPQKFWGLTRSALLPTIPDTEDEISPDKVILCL
T1 sequence (Q16531 whole entry partner): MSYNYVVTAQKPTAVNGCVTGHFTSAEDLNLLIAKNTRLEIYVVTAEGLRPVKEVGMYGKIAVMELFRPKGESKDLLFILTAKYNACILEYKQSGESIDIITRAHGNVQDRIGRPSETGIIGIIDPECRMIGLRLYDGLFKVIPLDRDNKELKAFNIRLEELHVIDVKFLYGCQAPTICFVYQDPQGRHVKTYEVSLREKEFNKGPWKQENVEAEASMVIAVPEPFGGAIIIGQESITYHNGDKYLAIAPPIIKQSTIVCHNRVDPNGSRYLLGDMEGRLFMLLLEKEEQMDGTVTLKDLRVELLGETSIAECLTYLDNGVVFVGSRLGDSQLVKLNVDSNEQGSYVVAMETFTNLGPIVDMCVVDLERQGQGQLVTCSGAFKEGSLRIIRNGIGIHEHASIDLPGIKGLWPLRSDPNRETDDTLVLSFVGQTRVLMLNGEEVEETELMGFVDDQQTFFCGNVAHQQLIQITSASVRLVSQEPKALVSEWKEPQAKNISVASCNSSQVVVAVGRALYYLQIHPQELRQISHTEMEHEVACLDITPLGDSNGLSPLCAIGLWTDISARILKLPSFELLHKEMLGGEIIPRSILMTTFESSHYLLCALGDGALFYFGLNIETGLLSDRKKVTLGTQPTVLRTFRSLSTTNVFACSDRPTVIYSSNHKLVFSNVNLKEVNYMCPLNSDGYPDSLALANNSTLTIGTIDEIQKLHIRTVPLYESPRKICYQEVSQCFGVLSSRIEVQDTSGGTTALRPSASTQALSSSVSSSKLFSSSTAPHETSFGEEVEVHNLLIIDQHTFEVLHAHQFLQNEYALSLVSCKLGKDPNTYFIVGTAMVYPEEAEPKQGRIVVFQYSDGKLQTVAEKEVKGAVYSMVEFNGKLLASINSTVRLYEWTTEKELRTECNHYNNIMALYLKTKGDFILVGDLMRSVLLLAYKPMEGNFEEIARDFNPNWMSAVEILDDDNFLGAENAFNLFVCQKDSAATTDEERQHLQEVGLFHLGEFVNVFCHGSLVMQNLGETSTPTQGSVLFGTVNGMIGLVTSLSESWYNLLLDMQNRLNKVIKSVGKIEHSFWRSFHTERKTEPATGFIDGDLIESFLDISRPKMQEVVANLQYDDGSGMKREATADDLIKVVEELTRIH

| Structure (SMILES) | IC50 [2] | other results |
| --- | --- | --- |
| O=C1CCC(N2Cc3cc(CNC(=O)c4noc5cc(Cl)ccc45)ccc3C2=O)C(=O)N1 (stereo not drawn) [Compound 10, 6-Chloro-N-((2-(2,6-dioxopiperidin-3-yl)-1-oxoisoindolin-5-yl)methyl)benzo[d]isoxazole-3-carboxamide] | 0.0001 to 0.01 µM | degradation of GSPT1 protein [1]: selectively promote the degradation of GSPT1 protein; cytotoxic activity against KG-1 and NCI-H1155 cancer cells (in words) ([2]; R1 bicyclic heteroaryl compared to monocyclic aryl (comparative substance) or heteroaryl (Compounds 37 and 38)): more potent cytotoxic activity |
| O=C1CCC(N2Cc3cc(CNC(=O)C4(c5ccccc5)CCCC4)ccc3C2=O)C(=O)N1 (stereo not drawn) [Compound 54, N-((2-(2,6-Dioxopiperidin-3-yl)-1-oxoisoindolin-5-yl)methyl)-1-phenylcyclopentane-1-carboxamide] | 10 to 50 µM | – |
| Cn1cc(-c2cccc(Cl)c2)cc1C(=O)NCc1ccc2c(c1)CN(C1CCC(=O)NC1=O)C2=O (stereo not drawn) [Compound 40, 4-(3-Chlorophenyl)-N-((2-(2,6-dioxopiperidin-3-yl)-1-oxoisoindolin-5-yl)methyl)-1-methyl-1H-pyrrole-2-carboxamide] | 0.0001 to 0.01 µM | activity (in words) ([2]; monocyclic heteroaryl R1 and aryl R2 compared to bicyclic heteroaryl R1 (Compounds 8, 9, and 26)): significantly more potent activity |
| O=C1CCC(N2Cc3cc(CNC(=O)c4cc(-c5cccc(Cl)c5)c[nH]4)ccc3C2=O)C(=O)N1 (stereo not drawn) [Compound 14, 4-(3-Chlorophenyl)-N-((2-(2,6-dioxopiperidin-3-yl)-1-oxoisoindolin-5-yl)methyl)-1H-pyrrole-2-carboxamide] | 0.0001 to 0.01 µM | – |
| O=C1CCC(N2Cc3cc(CNC(=O)c4n[nH]c5cc(Cl)ccc45)ccc3C2=O)C(=O)N1 (stereo not drawn) [Compound 1, 6-Chloro-N-((2-(2,6-dioxopiperidin-3-yl)-1-oxoisoindolin-5-yl)methyl)-1H-indazole-3-carboxamide] | 0.0001 to 0.01 µM | – |
| O=C1CCC(N2Cc3cc(CNC(=O)c4n[nH]c5cc(Cl)c(Cl)cc45)ccc3C2=O)C(=O)N1 (stereo not drawn) [Compound 4, 5,6-Dichloro-N-((2-(2,6-dioxopiperidin-3-yl)-1-oxoisoindolin-5-yl)methyl)-1H-indazole-3-carboxamide] | 0.0001 to 0.01 µM | – |
| Cn1cc(Br)cc1C(=O)NCc1ccc2c(c1)CN(C1CCC(=O)NC1=O)C2=O (stereo not drawn) [Compound 38, 4-Bromo-N-((2-(2,6-dioxopiperidin-3-yl)-1-oxoisoindolin-5-yl)methyl)-1-methyl-1H-pyrrole-2-carboxamide] | 1 to 10 µM | – |
| O=C1CCC(N2Cc3cc(CNC(=O)c4cc5ccccc5cn4)ccc3C2=O)C(=O)N1 (stereo not drawn) [Comparative Compound 1, N-((2-(2,6-Dioxopiperidin-3-yl)-1-oxoisoindolin-5-yl)methyl)isoquinoline-3-carboxamide, reference compound] | 10 to 50 µM | – |
| O=C1CCC(N2Cc3cc(CNC(=O)c4n[nH]c5ccccc45)ccc3C2=O)C(=O)N1 (stereo not drawn) [Compound 34, N-((2-(2,6-Dioxopiperidin-3-yl)-1-oxoisoindolin-5-yl)methyl)-1H-indazole-3-carboxamide] | 0.01 to 1 µM | – |
| Cc1cnc(C(=O)NCc2ccc3c(c2)CN(C2CCC(=O)NC2=O)C3=O)cc1-c1ccccc1 (stereo not drawn) [Compound 45, N-((2-(2,6-Dioxopiperidin-3-yl)-1-oxoisoindolin-5-yl)methyl)-5-methyl-4-phenylpicolinamide] | 0.0001 to 0.01 µM | – |
| O=C1CCC(N2Cc3cc(CNC(=O)c4ccccc4-c4ccccc4)ccc3C2=O)C(=O)N1 (stereo not drawn) [Compound 52, N-((2-(2,6-Dioxopiperidin-3-yl)-1-oxoisoindolin-5-yl)methyl)-[1,1′-biphenyl]-2-carboxamide] | 10 to 50 µM | – |
| O=C1CCC(N2Cc3cc(CNC(=O)c4nc5cc(Cl)c(Cl)cc5[nH]4)ccc3C2=O)C(=O)N1 (stereo not drawn) [Compound 16, 5,6-dichloro-N-((2-(2,6-dioxopiperidin-3-yl)-1-oxoisoindolin-5-yl)methyl)-1H-benzo[d]imidazole-2-carboxamide] | 0.01 to 1 µM | – |
